From the supplement of paper PMC10307832

Legend:
Assay in all cases: relative viability (nuclei count vs DMSO), 5 days (fraction); higher = more cells survive
[1] = test system: RERF-LC-KJ
In short: (§1)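 Relative viability was taken as the ratio of nuclei in treated wells to nuclei in vehicle wells. Lung cancer cell lines in 1536-well plates received compounds by pin tool one day after seeding, either one drug alone or a fixed anchor-drug dose plus five library-drug doses (not always all listed) in √10 steps. Nuclei were counted on 4× images after 5 days of treatment, and values are medians of duplicate plates.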

[2] = test system: A549
In short: as §1

[3] = test system: NCI-H1703
In short: as §1

[4] = test system: NCI-H1299
In short: as §1

[5] = test system: EBC-1
In short: as §1

[6] = test system: NCI-H520
In short: as §1

[7] = test system: IA-LM
In short: as §1

[8] = test system: NCI-H1651
In short: as §1

[9] = test system: Calu-6
In short: as §1

NC(=O)Nc1cc(-c2cccc(F)c2)sc1C(=O)N[C@H]1CCCNC1 [AZD7762] + CS(=O)(=O)CCNCc1ccc(-c2ccc3ncnc(Nc4ccc(OCc5cccc(F)c5)c(Cl)c4)c3c2)o1 [Lapatinib] (partner 2 µM) was tested, and the relative viability ([1]; first compound 0.01 µM) was 0.865, the relative viability ([1]; first compound 0.03162 µM) was 0.894 and the relative viability ([1]; first compound 0.1 µM) was 0.849. The relative viability ([1]; first compound 0.3162 µM) was 0.819, the relative viability ([1]; first compound 1 µM) was 0.956 and the relative viability ([2]; first compound 0.01 µM) was 1.12. It also gave a relative viability ([2]; first compound 0.03162 µM) of 1.02, a relative viability ([2]; first compound 0.1 µM) of 1.05 and a relative viability ([2]; first compound 0.3162 µM) of 0.823. The relative viability ([2]; first compound 1 µM) was 0.198, the relative viability ([3]; first compound 0.01 µM) was 0.627 and the relative viability ([3]; first compound 0.03162 µM) was 0.31. The relative viability ([3]; first compound 0.1 µM) was 0.238, the relative viability ([3]; first compound 0.3162 µM) was 0.176 and the relative viability ([3]; first compound 1 µM) was 0.156. It also gave a relative viability ([4]; first compound 0.01 µM) of 0.955, a relative viability ([4]; first compound 0.03162 µM) of 0.963 and a relative viability ([4]; first compound 0.1 µM) of 0.968. For the same molecule, the relative viability ([4]; first compound 0.3162 µM) was 0.811, the relative viability ([4]; first compound 1 µM) was 0.289 and the relative viability ([5]; first compound 0.01 µM) was 0.215. For the same molecule, the relative viability ([5]; first compound 0.03162 µM) was 0.191, the relative viability ([5]; first compound 0.1 µM) was 0.234 and the relative viability ([5]; first compound 0.3162 µM) was 0.199. For the same molecule, the relative viability ([5]; first compound 1 µM) was 0.186, the relative viability ([6]; first compound 0.01 µM) was 0.825 and the relative viability ([6]; first compound 0.03162 µM) was 0.864. The relative viability ([6]; first compound 0.1 µM) was 0.735, the relative viability ([6]; first compound 0.3162 µM) was 0.304 and the relative viability ([6]; first compound 1 µM) was 0.254. For the same molecule, the relative viability ([7]; first compound 0.01 µM) was 1.13, the relative viability ([7]; first compound 0.03162 µM) was 1.11 and the relative viability ([7]; first compound 0.1 µM) was 1.1. The relative viability ([7]; first compound 0.3162 µM) was 0.798, the relative viability ([7]; first compound 1 µM) was 0.16 and the relative viability ([8]; first compound 0.01 µM) was 0.93. It also gave a relative viability ([8]; first compound 0.03162 µM) of 0.832, a relative viability ([8]; first compound 0.1 µM) of 0.909 and a relative viability ([8]; first compound 0.3162 µM) of 0.607. For the same molecule, the relative viability ([8]; first compound 1 µM) was 0.195, the relative viability ([9]; first compound 0.01 µM) was 1.11 and the relative viability ([9]; first compound 0.03162 µM) was 1.02. The relative viability ([9]; first compound 0.1 µM) was 0.96, the relative viability ([9]; first compound 0.3162 µM) was 0.2 and the relative viability ([9]; first compound 1 µM) was 0.147.
NC(=O)Nc1cc(-c2cccc(F)c2)sc1C(=O)N[C@H]1CCCNC1 [AZD7762] + CS(=O)(=O)N1CCN(Cc2cc3nc(-c4cccc5[nH]ncc45)nc(N4CCOCC4)c3s2)CC1 [Pictilisib] (partner 1 µM) was tested, and the relative viability ([1]; first compound 0.01 µM) was 0.521, the relative viability ([1]; first compound 0.03162 µM) was 0.616 and the relative viability ([1]; first compound 0.1 µM) was 0.521. For the same molecule, the relative viability ([1]; first compound 0.3162 µM) was 0.6, the relative viability ([1]; first compound 1 µM) was 0.431 and the relative viability ([2]; first compound 0.01 µM) was 0.548. It also gave a relative viability ([2]; first compound 0.03162 µM) of 0.587, a relative viability ([2]; first compound 0.1 µM) of 0.641 and a relative viability ([2]; first compound 0.3162 µM) of 0.368. For the same molecule, the relative viability ([2]; first compound 1 µM) was 0.107, the relative viability ([3]; first compound 0.01 µM) was 0.234 and the relative viability ([3]; first compound 0.03162 µM) was 0.252. For the same molecule, the relative viability ([3]; first compound 0.1 µM) was 0.224, the relative viability ([3]; first compound 0.3162 µM) was 0.189 and the relative viability ([3]; first compound 1 µM) was 0.129. It also gave a relative viability ([4]; first compound 0.01 µM) of 0.98, a relative viability ([4]; first compound 0.03162 µM) of 0.882 and a relative viability ([4]; first compound 0.1 µM) of 0.622. The relative viability ([4]; first compound 0.3162 µM) was 0.248, the relative viability ([4]; first compound 1 µM) was 0.116 and the relative viability ([5]; first compound 0.01 µM) was 0.429. The relative viability ([5]; first compound 0.03162 µM) was 0.447, the relative viability ([5]; first compound 0.1 µM) was 0.375 and the relative viability ([5]; first compound 0.3162 µM) was 0.28. It also gave a relative viability ([5]; first compound 1 µM) of 0.166, a relative viability ([6]; first compound 0.01 µM) of 0.328 and a relative viability ([6]; first compound 0.03162 µM) of 0.28. The relative viability ([6]; first compound 0.1 µM) was 0.253, the relative viability ([6]; first compound 0.3162 µM) was 0.216 and the relative viability ([6]; first compound 1 µM) was 0.219. For the same molecule, the relative viability ([7]; first compound 0.01 µM) was 0.48, the relative viability ([7]; first compound 0.03162 µM) was 0.456 and the relative viability ([7]; first compound 0.1 µM) was 0.538. The relative viability ([7]; first compound 0.3162 µM) was 0.48, the relative viability ([7]; first compound 1 µM) was 0.0832 and the relative viability ([8]; first compound 0.01 µM) was 0.755. It also gave a relative viability ([8]; first compound 0.03162 µM) of 0.566, a relative viability ([8]; first compound 0.1 µM) of 0.556 and a relative viability ([8]; first compound 0.3162 µM) of 0.457. The relative viability ([8]; first compound 1 µM) was 0.226, the relative viability ([9]; first compound 0.01 µM) was 0.882 and the relative viability ([9]; first compound 0.03162 µM) was 0.875. The relative viability ([9]; first compound 0.1 µM) was 0.691, the relative viability ([9]; first compound 0.3162 µM) was 0.17 and the relative viability ([9]; first compound 1 µM) was 0.113.
NC(=O)Nc1cc(-c2cccc(F)c2)sc1C(=O)N[C@H]1CCCNC1 [AZD7762] + C[C@@H](Oc1cc(-c2cnn(C3CCNCC3)c2)cnc1N)c1c(Cl)ccc(F)c1Cl [Crizotinib] (partner 1 µM) gave a relative viability ([1]; first compound 0.01 µM) of 0.897, a relative viability ([1]; first compound 0.03162 µM) of 0.894 and a relative viability ([1]; first compound 0.1 µM) of 0.777. It also gave a relative viability ([1]; first compound 0.3162 µM) of 0.809, a relative viability ([1]; first compound 1 µM) of 0.742 and a relative viability ([2]; first compound 0.01 µM) of 0.795. The relative viability ([2]; first compound 0.03162 µM) was 0.821, the relative viability ([2]; first compound 0.1 µM) was 0.775 and the relative viability ([2]; first compound 0.3162 µM) was 0.424. The relative viability ([2]; first compound 1 µM) was 0.0696, the relative viability ([3]; first compound 0.01 µM) was 0.314 and the relative viability ([3]; first compound 0.03162 µM) was 0.169. The relative viability ([3]; first compound 0.1 µM) was 0.136, the relative viability ([3]; first compound 0.3162 µM) was 0.0849 and the relative viability ([3]; first compound 1 µM) was 0.105. For the same molecule, the relative viability ([4]; first compound 0.01 µM) was 0.966, the relative viability ([4]; first compound 0.03162 µM) was 0.975 and the relative viability ([4]; first compound 0.1 µM) was 0.974. For the same molecule, the relative viability ([4]; first compound 0.3162 µM) was 0.826, the relative viability ([4]; first compound 1 µM) was 0.307 and the relative viability ([5]; first compound 0.01 µM) was 0.199. It also gave a relative viability ([5]; first compound 0.03162 µM) of 0.209, a relative viability ([5]; first compound 0.1 µM) of 0.167 and a relative viability ([5]; first compound 0.3162 µM) of 0.187. The relative viability ([5]; first compound 1 µM) was 0.167, the relative viability ([6]; first compound 0.01 µM) was 0.975 and the relative viability ([6]; first compound 0.03162 µM) was 0.692. It also gave a relative viability ([6]; first compound 0.1 µM) of 0.477, a relative viability ([6]; first compound 0.3162 µM) of 0.504 and a relative viability ([6]; first compound 1 µM) of 0.276. The relative viability ([7]; first compound 0.01 µM) was 1.04, the relative viability ([7]; first compound 0.03162 µM) was 0.907 and the relative viability ([7]; first compound 0.1 µM) was 1.26. It also gave a relative viability ([7]; first compound 0.3162 µM) of 0.858, a relative viability ([7]; first compound 1 µM) of 0.277 and a relative viability ([8]; first compound 0.01 µM) of 1. The relative viability ([8]; first compound 0.03162 µM) was 0.87, the relative viability ([8]; first compound 0.1 µM) was 0.894 and the relative viability ([8]; first compound 0.3162 µM) was 0.862. For the same molecule, the relative viability ([8]; first compound 1 µM) was 0.714, the relative viability ([9]; first compound 0.01 µM) was 0.897 and the relative viability ([9]; first compound 0.03162 µM) was 0.813. It also gave a relative viability ([9]; first compound 0.1 µM) of 0.651, a relative viability ([9]; first compound 0.3162 µM) of 0.162 and a relative viability ([9]; first compound 1 µM) of 0.0886.
In the case of NC(=O)Nc1cc(-c2cccc(F)c2)sc1C(=O)N[C@H]1CCCNC1 [AZD7762] + C[C@]1(O)C[C@@H](c2nc(-c3ccc4ccc(-c5ccccc5)nc4c3)c3c(N)nccn32)C1 [Linsitinib] (partner 1 µM), the relative viability ([1]; first compound 0.01 µM) is reported as 0.923, the relative viability ([1]; first compound 0.03162 µM) is reported as 0.879 and the relative viability ([1]; first compound 0.1 µM) is reported as 0.849. It also gave a relative viability ([1]; first compound 0.3162 µM) of 0.908, a relative viability ([1]; first compound 1 µM) of 0.842 and a relative viability ([2]; first compound 0.01 µM) of 0.564. It also gave a relative viability ([2]; first compound 0.03162 µM) of 0.577, a relative viability ([2]; first compound 0.1 µM) of 0.705 and a relative viability ([2]; first compound 0.3162 µM) of 0.616. It also gave a relative viability ([2]; first compound 1 µM) of 0.494, a relative viability ([3]; first compound 0.01 µM) of 0.688 and a relative viability ([3]; first compound 0.03162 µM) of 0.164. The relative viability ([3]; first compound 0.1 µM) was 0.181, the relative viability ([3]; first compound 0.3162 µM) was 0.164 and the relative viability ([3]; first compound 1 µM) was 0.177. It also gave a relative viability ([4]; first compound 0.01 µM) of 0.99, a relative viability ([4]; first compound 0.03162 µM) of 0.995 and a relative viability ([4]; first compound 0.1 µM) of 1.04. It also gave a relative viability ([4]; first compound 0.3162 µM) of 1, a relative viability ([4]; first compound 1 µM) of 0.323 and a relative viability ([5]; first compound 0.01 µM) of 1.01. It also gave a relative viability ([5]; first compound 0.03162 µM) of 0.877, a relative viability ([5]; first compound 0.1 µM) of 1.03 and a relative viability ([5]; first compound 0.3162 µM) of 0.884. For the same molecule, the relative viability ([5]; first compound 1 µM) was 0.76, the relative viability ([6]; first compound 0.01 µM) was 1.16 and the relative viability ([6]; first compound 0.03162 µM) was 0.893. For the same molecule, the relative viability ([6]; first compound 0.1 µM) was 0.848, the relative viability ([6]; first compound 0.3162 µM) was 0.551 and the relative viability ([6]; first compound 1 µM) was 0.389. The relative viability ([7]; first compound 0.01 µM) was 0.713, the relative viability ([7]; first compound 0.03162 µM) was 0.663 and the relative viability ([7]; first compound 0.1 µM) was 0.629. For the same molecule, the relative viability ([7]; first compound 0.3162 µM) was 0.628, the relative viability ([7]; first compound 1 µM) was 0.47 and the relative viability ([8]; first compound 0.01 µM) was 1.03. The relative viability ([8]; first compound 0.03162 µM) was 0.904, the relative viability ([8]; first compound 0.1 µM) was 0.902 and the relative viability ([8]; first compound 0.3162 µM) was 0.702. The relative viability ([8]; first compound 1 µM) was 0.358, the relative viability ([9]; first compound 0.01 µM) was 1.02 and the relative viability ([9]; first compound 0.03162 µM) was 0.964. It also gave a relative viability ([9]; first compound 0.1 µM) of 0.944, a relative viability ([9]; first compound 0.3162 µM) of 0.649 and a relative viability ([9]; first compound 1 µM) of 0.14.
